Data: patent publication US20220008508A1, “RELAXIN RECEPTOR 1 FOR USE IN TREATMENT AND PREVENTION OF HEART FAILURE” (Universität Heidelberg, priority 2018, published 2022)

How the values were obtained:
[1] = biological target: T1, human RXFP1 (Homo sapiens, UniProt Q9HBX9); experiment: P-PLB(S16) immunoblot in NRVMs transduced with human RXFP1 virus; type: cell-based, rat
T1 construct: synthesized and cloned into a pCDNA3.1 plasmid with N-terminal FLAG-TAG; expressed in transfected cells; host or cells: neonatal rat ventricular cardiomyocytes (NRVMs) transduced with AAV6-huRXFP1
Description: (§1) Images were processed using Odyssey imaging software.

[2] = biological target: T2, rat RXFP1 (Rattus norvegicus, UniProt Q6R6I6); experiment: P-PLB(S16) immunoblot in NRVMs transduced with rat RXFP1 virus; type: cell-based; details: 1 μM ML290 for 30 minutes
T2 construct: expressed in transfected cells
T2 sequence (Q6R6I6 1-758): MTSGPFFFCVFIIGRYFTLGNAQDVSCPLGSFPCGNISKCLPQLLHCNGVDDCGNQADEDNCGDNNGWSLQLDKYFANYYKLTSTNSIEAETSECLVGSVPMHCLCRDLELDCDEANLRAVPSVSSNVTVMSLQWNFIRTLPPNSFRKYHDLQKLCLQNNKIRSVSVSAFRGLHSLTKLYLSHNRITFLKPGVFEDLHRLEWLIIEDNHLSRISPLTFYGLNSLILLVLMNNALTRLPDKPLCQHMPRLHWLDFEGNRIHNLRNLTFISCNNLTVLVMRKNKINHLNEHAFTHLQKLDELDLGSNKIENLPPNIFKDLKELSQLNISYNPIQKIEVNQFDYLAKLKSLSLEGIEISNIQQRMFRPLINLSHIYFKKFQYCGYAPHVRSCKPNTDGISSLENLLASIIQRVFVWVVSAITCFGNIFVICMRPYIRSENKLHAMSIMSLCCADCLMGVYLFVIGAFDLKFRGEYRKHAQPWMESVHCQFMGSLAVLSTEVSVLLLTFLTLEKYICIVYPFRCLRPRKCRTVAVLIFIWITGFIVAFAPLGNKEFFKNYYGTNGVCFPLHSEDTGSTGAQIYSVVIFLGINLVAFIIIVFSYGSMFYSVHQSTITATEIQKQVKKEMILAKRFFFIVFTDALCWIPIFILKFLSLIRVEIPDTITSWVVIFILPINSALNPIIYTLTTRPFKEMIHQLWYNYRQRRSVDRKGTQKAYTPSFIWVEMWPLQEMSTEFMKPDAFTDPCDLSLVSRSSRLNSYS
Description: as §1

[3] = tested on: TAC-induced heart failure in mice; experiment: TAC heart failure model, echocardiography after AAV9-RXFP1 (rat) gene therapy with or without RLN pumps; type: in vivo, C57BL/6 mice; details: day 55, control AAV9.LUC virus, RLN pump
Experimental: Transverse aortic constriction (TAC) operation was previously described (Rockman et al., 1991, Proc. Natl. Acad. Sci. 88: 8277-8281). TAC model was used as heart failure model. 8 weeks old C57BL/6 mice were weighted prior to the operation. TAC operation was performed on day 0 using 26-gauge blunt needle effectively reducing the diameter of the transverse aorta to approximately 0.46 mm (Rockman et al., 1994, Proc. Natl. Acad. Sci. 91(7): 2694-2698). Cardiac function was assessed by echocardiography (Vevo 2100 VisualSonics) before TAC operation (day −2), before virus infusion (day 7), before pump implantation (day 28), and at 2-month follow up (day 55) (FIG. 1A and B). […] Osmotic pumps (Alzet 2004) were implanted on day 28 with animals randomized to get either saline or recombinant relaxin pumps. Follow up assessments were performed on day 55 and the animals were sacrificed 3 days later. In addition, 17 mice served as control animals which underwent sham operation, followed by either saline or recombinant relaxin pump implantation.
Echocardiography was performed using Vevo 2100, VisualSonics. The mice were shaved and held in prone position. […] The ejection fraction (EF), fractional shortening (FS), left ventricular internal diameter (LVIDd) and heart rate (HR) were calculated from 6 consecutive heartbeats in the M-mode using LV trace function.

[4] = biological target: T3, RXFP1 receptor (Rattus norvegicus, UniProt Q6R6I6); experiment: cAMP production (cAMP Glo assay) in RXFP1-transduced NRVMs stimulated with RLN; type: cell-based
T3 construct: expressed in transfected cells; host or cells: neonatal rat ventricular cardiomyocytes (NRVMs) transduced with AAV6-RXFP1
T3 sequence (Q6R6I6 1-758): T2 sequence (Q6R6I6 1-758)
Experimental: Manufacture's manual was followed. […] The luminescence was measured with a luminometer.

[5] = tested on: TAC-induced heart failure in mice; experiment: TAC heart failure model, echocardiography after huRXFP1 gene therapy with or without RLN pumps; type: in vivo, C57BL/6 mice; details: day 55, control AAV9.LUC virus, RLN pump
Experimental: Heart failure model was generated by transverse aortic constriction operation (TAC) previously described (Rockman et al., 1991, Proc. Natl. Acad. Sci. 88: 8277-8281). 8 weeks old C57BL/6 mice were ordered and weighted prior to the operation. TAC operation was performed on day 0 using 26-gauge blunt needle effectively reducing the diameter of the transverse aorta to approximately 0.46 mm (Rockman et al., 1994, Proc. Natl. Acad. Sci. 91(7): 2694-2698). Cardiac function measurements were performed before Transverse aortic Constriction (TAC) operation (day −2) before virus infusion (day 7), before pump implantation (day 28), and at 2-month follow up time point (day 55) (FIG. 7A). […] Osmotic pumps were implanted on day 28 with animals randomized to get either saline or recombinant relaxin pumps. Follow up assessments were performed on day 55 and the animals were sacrificed 3 days later. In addition, 17 mice served as control animals that were sham operated followed by either saline or recombinant relaxin pumps implantation.
Echocardiography was performed using Vevo 2100, VisualSonics. The mice were shaved on the chest and held in prone position. […] The ejection fraction (EF) was calculated from 6 consecutive heartbeats in the M-mode using LV trace function.

[6] = biological target: T4, huRXFP1 (Homo sapiens, UniProt Q9HBX9); experiment: Pressure-volume loop hemodynamics in huRXFP1 TG animals after RLN administration; type: in vivo, mouse; details: RXFP1 transgenic animals vs WT animals, 10 μg RLN I.P.
T4 construct: FLAG huRXFP1 was cloned onto a place holder plasmid; expressed in transfected cells; host or cells: transgenic mice, cardiomyocyte expression under the alpha-MHC promoter (in vivo)
T4 sequence (Q9HBX9 with tags, fused parts or gaps): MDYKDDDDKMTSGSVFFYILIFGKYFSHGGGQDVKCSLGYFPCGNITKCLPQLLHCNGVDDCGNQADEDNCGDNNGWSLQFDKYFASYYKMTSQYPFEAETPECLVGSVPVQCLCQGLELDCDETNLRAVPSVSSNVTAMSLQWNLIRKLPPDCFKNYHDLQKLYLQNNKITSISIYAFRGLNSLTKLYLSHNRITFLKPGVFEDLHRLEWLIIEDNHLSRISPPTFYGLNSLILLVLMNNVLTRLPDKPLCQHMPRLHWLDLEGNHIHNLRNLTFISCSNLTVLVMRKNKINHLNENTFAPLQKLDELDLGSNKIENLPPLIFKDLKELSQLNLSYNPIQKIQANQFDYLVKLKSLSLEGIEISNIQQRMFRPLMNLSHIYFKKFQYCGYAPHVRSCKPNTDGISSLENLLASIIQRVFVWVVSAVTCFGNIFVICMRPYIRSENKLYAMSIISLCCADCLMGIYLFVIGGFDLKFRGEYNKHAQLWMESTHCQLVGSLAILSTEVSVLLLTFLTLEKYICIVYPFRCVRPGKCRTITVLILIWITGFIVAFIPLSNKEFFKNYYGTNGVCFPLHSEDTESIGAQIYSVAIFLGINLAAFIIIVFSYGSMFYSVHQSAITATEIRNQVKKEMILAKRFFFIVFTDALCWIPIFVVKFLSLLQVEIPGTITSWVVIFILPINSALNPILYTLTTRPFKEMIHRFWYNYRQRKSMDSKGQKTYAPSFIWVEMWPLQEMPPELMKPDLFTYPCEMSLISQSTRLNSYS
Experimental: Pressure-volume loop (PV loop) measurement was performed modified from Abraham and Mao (Abraham and Mao (2015), J. Vis. Exp. (103): e52942). The animal was anesthetized according to the body weight with a cocktail of medetomidine, midazolam, and fentanyl intraperitoneally 15 minutes prior to the measurements. After the righting reflex was lost, the mouse was secured to the operating table with surgical tape. Prior to the measurement, the catheter tip was equilibrated in warm saline for 30 minutes. The neck and chest area was cleaned with ethanol and the fur was removed. An incision was made over the right carotid from mandible to sternum. The surrounding tissue was dissected to expose the right carotid, and the vagus nerve, which runs adjacent to the carotid, was […]. Sterile 6.0 silk suture was placed around the distal end (away from the chest) of the carotid artery, tied and secured. An additional suture was placed below the first suture on the carotid artery. The second suture was loosely tightened and clamped the carotid artery proximally to the second suture. […] The PV loops were continuously recorded throughout the experiment until 10 minutes after administration of the tested substances.
minimum were calculated according to the manufacturer's recommendation (Transonic). […]

[7] = Circulating plasma levels of recombinant relaxin H2 by ELISA; type: in vivo, mice; details: all animals receiving RLN by osmotic pump
Experimental: Circulating plasma levels of recombinant relaxin H2 were measured using a ready to use relaxin H2 Quantikine ELISA kit from R&D Systems (DLR200). Plasma samples were diluted 1:200 to stay within the detection range of the assay. 50 μL of negative control, positive control, standard and diluted samples were used for the measurement.

[8] = tested on: adult mouse cardiomyocytes expressing RXFP1; experiment: Ca2+ transient measurement in adult cardiomyocytes of RXFP1 transgenic mice; type: cell-based; details: isolated TG adult cardiomyocytes, 100 nM RLN, 1 minute
Description: Adult mouse cardiac cells were isolated a modified protocol from Harding et al. (Harding et al., 1990, Cardioscience. 1: 49-54). The mouse heart was perfused with digestion buffer in the Langendorff technique, thus enabling dissociation of single cardiac cells. An adult male mouse (30-35 g) was quickly euthanatized by cervical dislocation. Incision areas on the abdomen and thorax were sterilized with 70% ethanol and opened with lateral cuts by scissors. The abdominal Vena Cava was exposed, and heparin was given I.V. Then the heart was exposed and cut out with a large portion of the aorta and quickly placed into a 6 cm Petri dish with 10 mL of room temperature perfusion buffer. The aorta was slid onto the cannula of the Langendorff apparatus and fixed with a double knots surgical suture. Perfusion was started immediately with a drip rate of ˜3.5 mL/min. Filling of the coronary arteries was checked and evaluated in order to determine, if the heart was correctly positioned on the cannula. In order to remove residual serum traces and free Ca2+, the heart was washed with perfusion buffer for 1 minute. After that the heart was perfused with digestion buffer containing a mixture of liberase (mixture of collagenases) and trypsin solution for 10 minutes. The perfusion was stopped, when the heart became flaccid and easily penetrable by fine tip forceps. […]
Intracellular Ca^2+ transients were measured according to Yu et al. with modifications to fit available apparatus (Yu et al., 2013, J. Biol. Chem. 288(31): 22481-22492). […] Next the dish was protected from light and connected to an electrode system on the table of a high throughput inverted fluorescence microscope (Cytocypher). […] The alternative measurement of the bispectral emission (340 nm/380 nm) was performed with the fluorescence microscope for baseline and after 1, 5, and 10 minutes stimulation with NaCl, 100 nM RLN, and 10 nM ISO. The transients were calculated using transient calculated software from the cytocypher. The following parameters were analyzed: a) Peak Height, b) Departure velocity, and c) Return velocity.

[9] = biological target: rat (Rattus norvegicus) relaxin receptor 1 (RXFP1) with N-terminal FLAG-TAG, expressed in neonatal rat ventricular cardiomyocytes from AAV6-CMV-MLC260-FLAG-Rel1 Rattus (Rattus norvegicus) (UniProt Q6R6I6); experiment: cell-based or functional assay

With `CC(C)Oc1ccccc1C(=O)Nc1ccccc1C(=O)Nc1cccc(S(=O)(=O)C(F)(F)F)c1` [ML290, 2-Isopropoxy-N-(2-(3-(trifluoromethylsulfonyl)phenylcarbamoyl)phenyl)benzamide] the “P-PLB(S16), 1 μM ML290 vs 100 nM recombinant RLN” value [1] was “No difference”, the “P-PLB(S16)” value ([1]; 1 μM ML290 for 30 minutes) was “Significant increase” and the “P-PLB(S16)” value [2] was “Marked increase”.

With “RLN: recombinant relaxin H2 peptide hormone, RXFP1 agonist” the “Ejection fraction (EF)” value [3] was 47.79±13.38%, the “Fractional shortening (FS)” value [3] was 23.98±7.64 and the “RLN concentration at peak stimulation of the RXFP1 receptor (cAMP)” value ([4]; 30 minutes) was 10 nM. For the same compound, the “cAMP accumulation with higher recombinant RLN concentrations” value ([4]; above 10 nM RLN) was “no further increase”, the “Ejection fraction (EF)” value [5] was 50.02±18.31% and the “Heart rate (HR)” value [6] was “significant increase”. The dP/dt maximum [6] was “significant increase”, the RLN plasma levels [7] was “elevated” and the “Ca2+ transient Departure velocity” value [8] was “trend toward an increase”. The “Ca2+ transient Peak Height” value [8] was “trend toward an increase” and the “Ca2+ transient Return velocity” value [8] was “trend toward an increase”.

With “recombinant relaxin H2 (from UniProt P04090 25-53; P04090 162-185) (ligand)” the RLN concentration of peak cAMP stimulation in transduced NRVMs [9] was 10 nM.
